Like-named read-outs stand apart in the source and are kept apart here. Marks after values point to notes of the source that are not given here.
Key:
[1] = tested on: CD8 co-receptor; conditions: [IMMP] 10^−12 M; With-A
Protocol: The Analysis was performed by flow cytometry, using fluorescence intensity histograms, which allowed us to identify three regions: expression negative, low and high.

[2] = tested on: antibodies vs. LR.4 cells
Protocol: This was performed by flow cytometry. LR.4 cells were washed and incubated in serum dilutions obtained from mice, using as second antibody an antibody vs. mouse conjugated to fluoresce.

[3] = tested on: LR.4 cells
Excerpt: The cellular viability that was quantified by the MTT method, indicates the mitochondrial activity.

[4] = tested on: rats with rheumatoid arthritis
Excerpt: This produces that in the third week appears edema of the cephalic and caudal extremities, which can be measured with a vernier. Inflammation is due to the presence of the own autoimmune response against […] of the rat.

[5] = tested on: human lymphocytes
[6] = tested on: rats with acute hepatitis induced with CCI4;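 further: endpoints determined in blood and liver tissue collected when the rats were sacrificed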
[7] = tested on: platelets
[8] = Acute Hepatitis + IMMP, time of CCI4 24
[9] = Acute Hepatitis + IMMP, time of CCI4 48
[10] = Acute Hepatitis + IMMP, time of CCI4 72

## Peptide LEDGPKFL + Zinc [IMMP]
[1]
  Expression Intensity of CD8, Fluorescence, Negative: 2.0 ± 0.4 arbitrary fluorescence intensity units
[2]; IMMP alone, no tumor, serum dilution 0
  % of LR.4 cells stained with the serum antibody: 0%
[2]; IMMP alone, no tumor, serum dilution 1:2
  % of LR.4 cells stained with the serum antibody: 0%
[2]; IMMP alone, no tumor, serum dilution 1:4
  % of LR.4 cells stained with the serum antibody: 0%
[2]; IMMP alone, no tumor, serum dilution 1:8
  % of LR.4 cells stained with the serum antibody: 0%
[2]; IMMP alone, no tumor, serum dilution 1:16
  % of LR.4 cells stained with the serum antibody: 0%
[2]; IMMP alone, no tumor, serum dilution 1:32
  % of LR.4 cells stained with the serum antibody: 0%
[2]; IMMP alone, no tumor, serum dilution 1:64
  % of LR.4 cells stained with the serum antibody: 0%
[2]; LR.4 + IMMP, serum dilution 0
  % of LR.4 cells stained with the serum antibody: 100%
[2]; LR.4 + IMMP, serum dilution 1:2
  % of LR.4 cells stained with the serum antibody: 100%
[2]; LR.4 + IMMP, serum dilution 1:4
  % of LR.4 cells stained with the serum antibody: 100%
[2]; LR.4 + IMMP, serum dilution 1:8
  % of LR.4 cells stained with the serum antibody: 100%
[2]; LR.4 + IMMP, serum dilution 1:16
  % of LR.4 cells stained with the serum antibody: 83%
[2]; LR.4 + IMMP, serum dilution 1:32
  % of LR.4 cells stained with the serum antibody: 40%
[2]; LR.4 + IMMP, serum dilution 1:64
  % of LR.4 cells stained with the serum antibody: 15%
[2]; mouse, in vivo
  Antibodies vs tumor relative to untreated group: four times more antibodies
[3]
  Increase of LR.4 cells: 20%
[3]; IMMP (M) −8
  Cells proliferation (control percent, MTT): 115 ± 5.4 %
[3]; IMMP (M) −9
  Cells proliferation (control percent, MTT): 118 ± 6.7 %
[3]; IMMP (M) −10
  Cells proliferation (control percent, MTT): 120 ± 8.5 %
[3]; IMMP (M) −11
  Cells proliferation (control percent, MTT): 110 ± 10.9 %
[3]; IMMP (M) −12
  Cells proliferation (control percent, MTT): 104 ± 4.3%
[4]; AR + treatment
  Number of rats showing Inflammation 0%: 3
  Number of rats showing Inflammation 50%: 3
  Number of rats showing Inflammation 100% of palmar and plantar pad: 6
[4]; IMMP alone, no arthritis
  Number of rats showing Inflammation 0%: 0
  Number of rats showing Inflammation 50%: 0
  Number of rats showing Inflammation 100% of palmar and plantar pad: 0
[4]; rat, in vivo
  Animals with inflammation reduced at 50%: 25%
  Animals with inflammation reduced at 100%: 25%
[5]
  Concentrations that increased the proliferative response: 10-10 M
[6]; [8]
  Serum ALT: 351.0 ± 10.4 UI/L
  Serum AST: 493.6 ± 30.3 UI/L
  Serum PA (alkaline phosphatase): 1139.0 ± 86.8 UI/L
[6]; [9]
  Serum ALT: 275.54 ± 22.3 UI/L
  Serum AST: 377.0 ± 17.7 UI/L
  Serum PA (alkaline phosphatase): 1287.5 ± 83.6 UI/L
[6]; [10]
  Serum ALT: 233.0 ± 20.8 UI/L
  Serum AST: 230.2 ± 15.4 UI/L
  Serum PA (alkaline phosphatase): 1306.2 ± 90.7 UI/L
[6]; CCI4 + IMMP, 24 hours
  Hepatic glutathione: 13.3 ± 3.3 ng/mg of tissue
[6]; CCI4 + IMMP, 24 hours after CCI4
  Relative weight of the liver (organ weight / weight of the animal): 8.0 ± 0.9 ^ relative units
[6]; CCI4 + IMMP, 48 hours
  Hepatic glutathione: 14.2 ± 2.8 ng/mg of tissue
[6]; CCI4 + IMMP, 48 hours after CCI4
  Relative weight of the liver (organ weight / weight of the animal): 6.8 ± 0.7 relative units
[6]; CCI4 + IMMP, 72 hours
  Hepatic glutathione: 3.7 ± 1.6 ng/mg of tissue
[6]; CCI4 + IMMP, 72 hours after CCI4
  Relative weight of the liver (organ weight / weight of the animal): 5.7 ± 0.5 relative units
[6]; IMMP alone, no CCI4, 24 hours, 100 ng/kg i.p. x3
  Relative weight of the liver (organ weight / weight of the animal): 5.4 ± 0.5 relative units
[6]; IMMP alone, no CCI4, 48 hours, 100 ng/kg i.p. x3
  Relative weight of the liver (organ weight / weight of the animal): 5.0 ± 0.4 relative units
[6]; IMMP alone, no CCI4, 72 hours, 100 ng/kg i.p. x3
  Relative weight of the liver (organ weight / weight of the animal): 4.9 ± 0.2 relative units
[6]; IMMP alone, 24 hours
  Hepatic glutathione: 3.1 ± 1.0 ng/mg of tissue
[6]; IMMP alone, 48 hours
  Hepatic glutathione: 3.5 ± 0.3 ng/mg of tissue
[6]; IMMP alone, 72 hours
  Hepatic glutathione: 5.1 ± 0.6 ng/mg of tissue
[6]; IMMP alone, time 24
  Serum ALT: 64.0 ± 22.4 UI/L
  Serum AST: 72.4 ± 4.1 UI/L
  Serum PA (alkaline phosphatase): 525.0 ± 160 UI/L
[6]; IMMP alone, time 48
  Serum ALT: 73.1 ± 6.1 UI/L
  Serum AST: 72.5 ± 3.9 UI/L
  Serum PA (alkaline phosphatase): 804.5 ± 39.5 UI/L
[6]; IMMP alone, time 72
  Serum ALT: 71.4 ± 8.4 UI/L
  Serum AST: 71.6 ± 6.9 UI/L
  Serum PA (alkaline phosphatase): 604.0 ± 26.9 UI/L
[7]; normal animals
  Increase in blood platelets: ~100%
[7]; normal rats
  Platelets: 1560 ± 248* 10^3/μL
